Experimental data taken from US9682931B2, “Aryloyl(oxy or amino)pentafluorosulfanylbenzene compound, pharmaceutically acceptable salt thereof, and prodrugs thereof” (UBE INDUSTRIES, LTD., priority 2013, dated 2017).
≈ marks a conversion by molar mass, not a printed value.

Assays:
[1] = test system: K562 human leukemia-derived cell lines; experiment: K562 human leukemia cell-proliferation inhibition test; type: cell-based; settings: Homo sapiens, K562, 72 h, K562 cells, 72 hours, viable cells counted with trypan blue; read-out: IC50
Experimental: K562 Human Leukemia Cell-Proliferation Inhibition Test
A cell proliferation inhibition test using K562 cells was performed. The activity in the presence of a test substance was compared to the activity in the presence of green tea polyphenol (GTP). The materials used in the test are as follows.
Cells: K562 human leukemia-derived cell lines (DS Pharma Biomedical Co., Ltd.)
Control Substance: Green Tea Polyphenols, abbreviation: GTP (LKT Laboratories, Inc.)
Culture solution: 10% equine serum-supplemented RPMI1640 medium
A test substance and a control substance were used by dissolving each of them in DMSO. To a solution (0.99 mL) containing K562 cells in a cell concentration of 20,000 cells/mL, a test substance solution or a control substance solution (0.01 mL) was added and the cells were cultured. Seventy two hours later, a part of the cells was stained with trypan blue and viable cells were counted by a counting chamber.
In Table 2, “IC50” denotes the sample concentration inhibiting 50% of cell proliferation

MKN1 (stomach cancer) = experiment: Evaluation of anticancer action, cell proliferation inhibition (WST-8), MKN1; type: cell-based; settings: Homo sapiens, MKN-1, MKN1, about 72 hours
Description: (§1) The cell proliferation inhibitory effects of a test substance (Compound 3) on various types of cancer cells were examined.
(§2) 1. Measuring Reagent and Analysis Software
(§3) WST-8 Kit (Cat. No. 260-96165 or 260-96162; manufactured by Kishida Chemical Co., Ltd.) for counting cell number
(§4) Software for graph making and measurement of GI50 value: XLfit 5.2 (ID Business Solutions Ltd.)
(§5) 2. Cells and Culture Conditions
(§6) Five types of cells and medium (the following Table) were used. The cells were obtained from the Research Resource Bank of the Human Sciences Foundation.
(§7) On the day when a sample was to be added, the sample was weighed and a medium for each type of cells was added so as to be 500 μg/mL. Sonication was performed while warming at 37° C. for 60 minutes to be dissolved. Then, filtration was performed by a 0.22 m-filter. The 500 μg/mL-solution was diluted with the medium for each type of cells to prepare 200 μg/mL, 60 μg/mL, 20 μg/mL, 6 μg/mL, 2 μg/mL, 0.6 μg/mL and 0.2 μg/mL solutions, which were specified as two-fold concentration test solutions (the final concentrations of the test substance were 250 µg/mL, 100 μg/mL, 30 μg/mL, 10 μg/mL, 3 μg/mL, 1 μg/mL, 0.3 μg/mL, […], respectively). […]
(§8) (8) Absorbance values at 450 nm and 650 nm were measured to calculate O.D. 450 and O.D. 650. […]
(§9) ODdrug-exposed wells: absorbance of a well containing a sample […]

Hep G2 (liver cancer) = experiment: Evaluation of anticancer action, cell proliferation inhibition (WST-8), Hep G2; type: cell-based; settings: Homo sapiens, HepG2, Hep G2, about 72 hours
Description: as §1, §2, §3, §4, §5, §6, §7, §8, §9

MCF-7 (breast cancer) = experiment: Evaluation of anticancer action, cell proliferation inhibition (WST-8), MCF-7; type: cell-based; settings: Homo sapiens, MCF7, MCF-7, about 72 hours
Description: as §1, §2, §3, §4, §5, §6, §7, §8, §9

RBL-2H3 cells = experiment: Degranulation suppression test of RBL-2H3 cells (β-hexosaminidase release, IgE stimulation); type: cell-based, Rat; settings: for Degranulation ratio: relative to untreated control, n = 4
Experimental: 1. Degranulation Suppression Test of RBL-2H3 Cells
As to Compound 3, the granule release (degranulation) suppression action on RBL-2H3 cell by IgE stimulation, which is a cell model for an allergic reaction, was examined.
A test substance (50 mg) was dissolved by adding 1 mL of 50 vol % ethanol to the test substance to obtain a concentration of 50 mg/mL. The solution thus obtained was diluted with a buffer solution. […] The concentrations were all indicated as the concentrations in cell supernatants.
β-Hexosaminidase abundantly present in granules of RBL-2H3 cells was used as the index of degranulation caused by IgE stimulation, and p-nitrophenol produced by the reaction with a substrate was measured by colorimetric assay. The activity values of β-hexosaminidase present within cells and released in the culture supernatant were determined to obtain the release rate of β-hexosaminidase, and then, a degranulation rate relative to an untreated control was obtained. Based on this, degranulation inhibitory action was evaluated.
Main test conditions and outline of the operation will be described below.
Cell: Rat basophil leukemic cell, RBL-2H3 [Human Sciences Foundation]
Stimulation of degranulation: Anti-DNP-IgE antibody, DNP labeled albumin [Sigma-Aldrich Corporation]
Degranulation Index: 3-Hexosaminidase activity
Measurement apparatus: Microplate reader, SpectraMax M2c • [Molecular Devices Corporation]
In this test, an action to suppress granule release (degranulation) in mast cells caused by an IgE antigen stimulation is evaluated. Thus, the smaller the degranulation ratio is, the stronger the effect is […]

Structure (SMILES)	IC50 [1] [µg/mL]	GI50 (MKN1 (stomach cancer)) [µg/mL]	GI50 (Hep G2 (liver cancer)) [µg/mL]	GI50 (MCF-7 (breast cancer)) [µg/mL]	cytotoxicity (visual) (RBL-2H3 cells; RBL-2H3 cells, any concentration)	Degranulation ratio (RBL-2H3 cells; sample 1 μg/mL) [%]	Degranulation ratio (RBL-2H3 cells; sample 10 μg/mL) [%]	Degranulation ratio (RBL-2H3 cells; sample 25 μg/mL) [%]	Degranulation ratio (RBL-2H3 cells; sample 50 μg/mL in cell supernatant) [%]	Degranulation ratio (RBL-2H3 cells; sample 100 μg/mL in cell supernatant) [%]
O=C(Oc1ccc(S(F)(F)(F)(F)F)cc1)c1cc(O)c(O)c(O)c1 [Compound 7, 4-(3,4,5-trihydroxybenzoyloxy)pentafluorosulfanylbenzene]	1.9 (≈ 5.1 µM)	–	–	–	–	–	–	–	–	–
O=C(Nc1ccc(S(F)(F)(F)(F)F)cc1)c1cc(O)c(O)c(O)c1 [Compound 3, 4-(3,4,5-trihydroxybenzoylamino)pentafluorosulfanylbenzene]	0.81 (≈ 2.18 µM)	5.1 (≈ 13.7 µM)	9.8 (≈ 26.4 µM)	13.6 (≈ 36.6 µM)	not visually confirmed	91	85	73	35	19
